# Measured values reported in article PMC5444710, “Enhancement of radiosensitivity by the novel anticancer quinolone derivative vosaroxin in preclinical glioblastoma models” (Oncotarget, 2017).
# Experiments:
# U87MG cells = assay: Clonogenic survival assay; assay type: cell-based, human
# Method: (§1) For clonogenic survival assays, exponentially growing cells (70% confluence) were cultured in regular media and treated with vosaroxin, at the appropriate concentrations, or vehicle (final dimethyl sulfoxide concentration of 0.1%) for 48 hours. Tumor cells were then irradiated at room temperature with increasing doses of radiation (0–6 Gy) using an x-ray linear accelerator (dose rate of 200 cGy/min). Nonirradiated controls were handled identically to the irradiated cells with the exception of the radiation exposure. […] […] Colonies containing more than 50 cells were counted. The plating efficiency was calculated as the number of colonies observed divided by the number of cells plated. The surviving fraction was calculated as the number of colonies formed in the treated dishes compared with the number formed in the control. The survival curves were analyzed using SPSS statistical software (Chicago, IL, USA) by means of a fit of the data by a weighted, stratified, linear regression, according to the linear-quadratic formula: S(D)/S(O) = exp-(αD + βD2). The cell survival enhancement ratio was calculated as the ratio of the mean inactivation dose under control conditions divided by the mean inactivation dose after treatment as previously described.
# T98G cells = assay: Clonogenic survival assay; assay type: cell-based, human
# Method: as §1
# A172 cells = assay: Clonogenic survival assay; assay type: cell-based, human
# Method: as §1
# T98G xenografts = assay: Subcutaneous xenograft model: tumor weight and time to progression; assay type: in vivo, female CD1-nu/nu mice; settings: for HR (95% CI) for tumor progression: T98G
# Method: (§2) Female CD1-nu/nu mice, at 6 weeks of age, were purchased from Charles River (Milan, Italy) under the guidelines established by our institution (University of L’Aquila, Medical School and Science and Technology School Board Regulations, complying with Italian government regulation n.116, January 27, 1992, for the use of laboratory animals). All mice received subcutaneous flank injections (2 each) of 1 × 10^6 U251, U87MG, and T98G cells representing models for MGMT-negative and MGMT-positive cells. Tumor growth was assessed biweekly by measuring tumor diameters with a Vernier caliper (length × width). Tumor weight was calculated according to the formula tumor weight (mg) = tumor volume (mm^3) = d2 × D/2, where d and D are the shortest and longest diameters, respectively. The effects of the treatments were assessed as previously described. At about 10 days after the tumor injection, 30 mice with tumor volumes of 0.5–0.8 cm^3 were randomly divided into 6 groups (5 mice per group with 2 tumors each): (1) control (vehicle); (2) vosaroxin (10 mg/kg every 5 days for 5 weeks intravenous [IV] injection into tail vein; (3) radiotherapy (RT; 4 Gy delivered in a single fraction); (4) vosaroxin in combination with RT; (5) temozolomide (16 mg/kg 5 consecutive days) and (6) temozolomide in combination with RT. Anesthetized tumor-bearing mice received focal irradiation. Irradiation was delivered using an x-ray linear accelerator at a dose rate of 200 cGy/min at room temperature. All mice were shielded with a specially designed lead apparatus to allow irradiation to the right hind limb. At the end of the study (35 days after the start of treatments), animals were sacrificed by carbon dioxide inhalation and tumors were then removed surgically. Half of the tumor was directly frozen in liquid nitrogen for protein analysis and the other half was fixed in paraformaldehyde overnight for immunohistochemical analyses.
# (§3) The following parameters were used to quantify the antitumor effects of different treatments as previously described: tumor volume, measured throughout the experiment; tumor weight, measured at the end of the experiment; tumor progression, defined as an increase of greater than 50% of tumor volume with respect to baseline; and time to progression (TTP), defined as the time until tumor progression was observed from baseline. Tumor size was measured with calipers and the TTP of a single tumor was calculated. TTP data were used to generate Kaplan-Meier curves for progression. This method of analysis was described previously, and may reduce both inter-subject variability resulting from differences in engraftment efficacy as well as intra-subject variability in response.
# (§4) In vivo drug combination studies were evaluated using CalcuSyn. For CI calculations of dual administration, the values of % cell kill (%CK) for a fixed tumor volume were determined by the log CK (LCK). LCK was calculated as LCK = (T − C) / (3.32 × Td), where Td represented the mean control group doubling time required to reach a fixed tumor volume, expressed in days. T and C were the mean times in days required to reach the same fixed tumor volume in the treated group and the control group, respectively. CK was calculated as %CK = [1 − (1 − 10LCK)] × 100. Tumor growth delay (TGD) was calculated as %TGD = [(T − C) / C] × 100, where T and C were the same values as those reported by Bruzzese et al..
# U251 xenografts = assay: as above; assay type: in vivo, female CD1-nu/nu mice; settings: for HR (95% CI) for tumor progression: U251
# Method: as §2, §3, §4
# U87MG xenografts = assay: as above; assay type: in vivo, female CD1-nu/nu mice; settings: for HR (95% CI) for tumor progression: U87MG
# Method: as §2, §3, §4
# [1] = concentration equal to IC20, analyzed at 21 days of culture
# [2] = irradiated 2, 4, 6 Gy 48 hours after drug exposure, calculated at a surviving fraction of 0.10
smiles,measurement,setting,value
CN[C@H]1CN(c2ccc3c(=O)c(C(=O)O)cn(-c4nccs4)c3n2)C[C@@H]1OC [vosaroxin],"surviving fraction, vosaroxin alone",U87MG cells; [1],0.77 ± 0.18
same,dose enhancement factor,U87MG cells; [2],1.55
same,"surviving fraction, vosaroxin alone",T98G cells; [1],0.84 ± 0.036
same,dose enhancement factor,T98G cells; [2],1.40
same,"surviving fraction, vosaroxin alone",A172 cells; [1],0.87 ± 0.18
same,dose enhancement factor,A172 cells; [2],1.24
same,final tumor weight reduction compared with vehicle controls,"T98G xenografts; T98G xenografts, day 35, VSR 10 mg/kg q 5 d for 5 wk IV, TMZ 16 mg/kg 5 consecutive days, RT single 4 Gy",60%
same,HR (95% CI) for tumor progression,T98G xenografts; VSR vs TMZ + RT,1.0 (0.4–2.4)
same,HR (95% CI) for tumor progression,T98G xenografts; VSR vs TMZ,0.5 (0.2–1.3)
same,HR (95% CI) for tumor progression,T98G xenografts; VSR vs VSR + RT,4.7 (1.5–14.6)
same,final tumor weight reduction compared with vehicle controls,"U251 xenografts; U251 xenografts, day 35, VSR 10 mg/kg q 5 d for 5 wk IV, TMZ 16 mg/kg 5 consecutive days, RT single 4 Gy",42%
same,HR (95% CI) for tumor progression,U251 xenografts; VSR vs TMZ + RT,4.2 (1.4–12.5)
same,HR (95% CI) for tumor progression,U251 xenografts; VSR vs TMZ,0.6 (0.3–1.6)
same,HR (95% CI) for tumor progression,U251 xenografts; VSR vs VSR + RT,4.0 (1.3–12.1)
same,final tumor weight reduction compared with vehicle controls,"U87MG xenografts; U87MG xenografts, day 35, VSR 10 mg/kg q 5 d for 5 wk IV, TMZ 16 mg/kg 5 consecutive days, RT single 4 Gy",44%
same,HR (95% CI) for tumor progression,U87MG xenografts; VSR vs TMZ + RT,0.8 (0.3–2.0)
same,HR (95% CI) for tumor progression,U87MG xenografts; VSR vs TMZ,0.6 (0.2–1.5)
same,HR (95% CI) for tumor progression,U87MG xenografts; VSR vs VSR + RT,4.3 (1.2–15.6)
